Experimental data as given in ChEMBL document CHEMBL3751717, “Benzylamide antagonists of protease activated receptor 2 with anti-inflammatory activity” (Bioorg Med Chem Lett, 2016).
Values belong to the compound of their own block, whether it stands above or below them. Calls of active or inactive are those of the source. The calls are words filed in the database; no cut-off is given here.

Tests used:
[1] = target: Proteinase-activated receptor 2 (Homo sapiens) (UniProt P55085); test: Agonist activity at PAR2 in human HT-29 cells assessed as induction of ca2+ release at 10 uM after 1 hr by FLIPR assay relative to 2f-LIGRLO-NH2; assay type: cell-based
[2] = target: Proteinase-activated receptor 2 (Homo sapiens) (UniProt P55085); test: Antagonist activity at PAR2 in human HT-29 cells assessed as inhibition of 2f-LIGRLO-NH2-induced ca2+ release at 1 uM preincubated for 15 mins measured after 1 hr by FLIPR assay; assay type: cell-based
[3] = AUC (0 to 6 hrs) in Wistar rat at 10 mg/kg, po; assay type: ADME, organism-based; parameters: time < 6 hr, dose 10 mg/kg, route oral; settings: in vivo
Rattus norvegicus [4] = test: Antiinflammatory activity in Wistar rat assessed as inhibition of 2f-LIGRLO-NH2-induced paw edema at 10 mg/kg, po dosed 120 mins before 2f-LIGRLO-NH2 stimulation; assay type: functional, organism-based
Rattus norvegicus [5] = test: Antiinflammatory activity in Wistar rat assessed as inhibition of 2f-LIGRLO-NH2-induced paw edema at 5 mg/kg, sc dosed 120 mins before 2f-LIGRLO-NH2 stimulation; assay type: functional, organism-based
[6] = Tmax in Wistar rat at 10 mg/kg, po; assay type: ADME, organism-based; settings: in vivo
[7] = Cmax in Wistar rat at 10 mg/kg, po; assay type: ADME, organism-based; parameters: dose 10 mg/kg, route oral; settings: in vivo
[8] = target: T1, Proteinase-activated receptor 2 (Homo sapiens, UniProt P55085); test: Antagonist activity at PAR2 in human HT-29 cells assessed as inhibition of 2f-LIGRLO-NH2-induced ca2+ release preincubated for 15 mins measured after 1 hr by FLIPR assay; assay type: cell-based
T1 sequence (P55085 whole entry): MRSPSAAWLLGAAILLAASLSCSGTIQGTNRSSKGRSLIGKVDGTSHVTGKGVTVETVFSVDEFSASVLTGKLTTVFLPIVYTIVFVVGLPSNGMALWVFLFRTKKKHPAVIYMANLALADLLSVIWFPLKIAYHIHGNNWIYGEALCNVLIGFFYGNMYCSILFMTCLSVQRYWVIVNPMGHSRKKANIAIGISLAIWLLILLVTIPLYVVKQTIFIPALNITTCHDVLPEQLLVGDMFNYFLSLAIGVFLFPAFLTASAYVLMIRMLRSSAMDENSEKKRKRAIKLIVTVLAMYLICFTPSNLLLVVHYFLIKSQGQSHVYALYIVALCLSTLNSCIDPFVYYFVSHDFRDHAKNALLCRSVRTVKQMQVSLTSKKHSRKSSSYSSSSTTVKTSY

[9] = target: T1, Proteinase-activated receptor 2; test: Antagonist activity at PAR2 in human HT-29 cells assessed as inhibition of trypsin-induced ca2+ release preincubated for 15 mins measured after 1 hr by FLIPR assay; assay type: cell-based
[10] = target: T2, Proteinase-activated receptor 1 (Homo sapiens) (UniProt P25116); test: Antagonist activity at PAR1 in human PC3 cells assessed as inhibition of TFLLR-induced ca2+ release at 100 uM preincubated for 15 mins measured after 1 hr by FLIPR assay; assay type: cell-based; settings: PC-3
T2 sequence (whole entry): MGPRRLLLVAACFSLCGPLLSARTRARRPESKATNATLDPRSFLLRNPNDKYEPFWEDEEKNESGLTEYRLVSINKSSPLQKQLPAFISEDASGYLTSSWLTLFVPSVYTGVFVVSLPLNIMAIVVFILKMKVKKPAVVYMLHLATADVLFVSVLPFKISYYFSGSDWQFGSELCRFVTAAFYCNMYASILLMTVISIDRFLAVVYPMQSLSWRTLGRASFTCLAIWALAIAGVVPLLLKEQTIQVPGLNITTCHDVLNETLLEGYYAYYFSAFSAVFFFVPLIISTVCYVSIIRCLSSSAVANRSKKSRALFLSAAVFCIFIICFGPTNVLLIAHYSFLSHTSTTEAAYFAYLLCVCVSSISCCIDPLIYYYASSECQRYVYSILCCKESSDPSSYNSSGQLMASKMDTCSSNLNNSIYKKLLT

[11] = target: T2, Proteinase-activated receptor 1 (Homo sapiens); test: Antagonist activity at PAR1 in human PC3 cells assessed as inhibition of alpha-thrombin-induced ca2+ release at 100 uM preincubated for 15 mins measured after 1 hr by FLIPR assay; assay type: cell-based; settings: PC-3
HTEC [12] = test: Antiinflammatory activity in human HTEC cells assessed as inhibition of 2f-LIGRLO-NH2-induced IL-6 production at 5 to 10 uM after 24 hrs by ELISA; assay type: functional, cell-based
HTEC [13] = test: Antiinflammatory activity in human HTEC cells assessed as inhibition of 2f-LIGRLO-NH2-induced TNFalpha production at 5 to 10 uM after 24 hrs by ELISA; assay type: functional, cell-based
[14] = target: T1, Proteinase-activated receptor 2; test: Displacement of europium-labeled 2f-LIGRLO-NH2 from human PAR2 expressed in CHO cells after 1 to 2 hrs; assay type: cell-based

Structure (SMILES): CC[C@H](C)[C@H](NC(=O)[C@H](CC1CCCCC1)NC(=O)c1ccno1)C(=O)NCc1ccccc1-c1ccccc1
Activity [1]: 1%
inhibition [2]: 0%

Structure (SMILES): CC[C@H](C)[C@H](NC(=O)[C@H](CC1CCCCC1)NC(=O)c1ccno1)C(=O)NCc1ccccc1Cl
Activity [1]: 43%
inhibition [2]: 85%

Structure (SMILES): CC[C@H](C)[C@H](NC(=O)[C@H](CC1CCCCC1)NC(=O)c1ccno1)C(=O)N(C)Cc1ccccc1
Activity [1]: 7%
inhibition [2]: 7%

Structure (SMILES): CC[C@H](C)[C@H](NC(=O)[C@H](CC1CCCCC1)NC(=O)c1ccno1)C(=O)NCc1ccccc1F
Activity [1]: 40%
inhibition [2]: 93%

Structure (SMILES): CC[C@H](C)[C@H](NC(=O)[C@H](CC1CCCCC1)NC(=O)c1ccno1)C(=O)NCc1cccc2c1OCO2
Activity [1]: 46%
inhibition [2]: 90%

Structure (SMILES): CC[C@H](C)[C@H](NC(=O)[C@H](CC1CCCCC1)NC(=O)c1ccno1)C(=O)NCc1ccc(-c2ccccc2)cc1
Activity [1]: 6%
inhibition [2]: 0%

Structure (SMILES): CC[C@H](C)[C@H](NC(=O)[C@H](CC1CCCCC1)NC(=O)c1ccno1)C(=O)NCc1ccccc1C
Activity [1]: 29%
inhibition [2]: 74%

Structure (SMILES): CC[C@H](C)[C@H](NC(=O)[C@H](CC1CCCCC1)NC(=O)c1ccno1)C(=O)NCc1nc2ccccc2[nH]1
Activity [1]: 86%

Structure (SMILES): CCOc1ccccc1CNC(=O)[C@@H](NC(=O)[C@H](CC1CCCCC1)NC(=O)c1ccno1)[C@@H](C)CC
Activity [1]: 29%
inhibition [2]: 71%

Structure (SMILES): CC[C@H](C)[C@H](NC(=O)[C@H](CC1CCCCC1)NC(=O)c1ccno1)C(=O)NCc1ccccc1[N+](=O)[O-]
Activity [1]: 45%
inhibition [2]: 94%

Structure (SMILES): CC[C@H](C)[C@H](NC(=O)[C@H](CC1CCCCC1)NC(=O)c1ccno1)C(=O)N1CCC2(C=Cc3ccccc32)CC1
AUC(0-t) at 6 h [3]: 3420 ng·h/mL
inhibition (Rattus norvegicus [4]): Active
inhibition (Rattus norvegicus [5]): Active
Activity [1]: 16%
Tmax [6]: 2.78 h
Cmax [7]: 1970 nM
IC50 ([8]; read-out: pIC50 (converted)): 1260 nM
IC50 ([9]; read-out: IC50): 9600 nM
inhibition [2]: 54%
inhibition [10]: inactive
inhibition [11]: inactive

Structure (SMILES): CC[C@H](C)[C@H](NC(=O)[C@H](CC1CCCCC1)NC(=O)c1ccno1)C(=O)NCc1ccc(OC)cc1
Activity [1]: 51%
inhibition [2]: 95%

Structure (SMILES): CC[C@H](C)[C@H](NC(=O)[C@H](CC1CCCCC1)NC(=O)c1ccno1)C(=O)NCc1cccc(OC(F)(F)F)c1
Activity [1]: 44%
inhibition [2]: 18%

Structure (SMILES): CC[C@H](C)[C@H](NC(=O)[C@H](CC1CCCCC1)NC(=O)c1ccno1)C(=O)NCc1cccc(F)c1
Activity [1]: 28%
inhibition [2]: 74%

Structure (SMILES): CC[C@H](C)[C@H](NC(=O)[C@H](CC1CCCCC1)NC(=O)c1ccno1)C(=O)N(CC(C)C)CC(C)C
Activity [1]: 1%
inhibition [2]: 0%

Structure (SMILES): CC[C@H](C)[C@H](NC(=O)[C@H](CC1CCCCC1)NC(=O)c1ccno1)C(=O)NCc1ccncc1
Activity [1]: 87%

Structure (SMILES): CC[C@H](C)[C@H](NC(=O)[C@H](CC1CCCCC1)NC(=O)c1ccno1)C(=O)NCc1ccc(F)cc1
Activity [1]: 28%
inhibition [2]: 82%

Structure (SMILES): CC[C@H](C)[C@H](NC(=O)[C@H](CC1CCCCC1)NC(=O)c1ccno1)C(=O)NC1C2CC3CC(C2)CC1C3 (stereo partly specified)
Activity [1]: 26%
inhibition [2]: 29%

Structure (SMILES): CC[C@H](C)[C@H](NC(=O)[C@H](CC1CCCCC1)NC(=O)c1ccno1)C(=O)NCc1ccccc1C(F)(F)F
Activity [1]: 42%
inhibition [2]: 57%

Structure (SMILES): CC[C@H](C)[C@H](NC(=O)[C@H](CC1CCCCC1)NC(=O)c1ccno1)C(=O)NCCc1ccc(OC)c(OC)c1
Activity [1]: 39%
inhibition [2]: 32%

Second part, led by results:

Activity [1]: 41%
inhibition [2]: 33%
Structure (SMILES): CC[C@H](C)[C@H](NC(=O)[C@H](CC1CCCCC1)NC(=O)c1ccno1)C(=O)NNc1ccccc1

Activity [1]: 1%
inhibition [2]: 8%
Structure (SMILES): CCCCOc1ccccc1CNC(=O)[C@@H](NC(=O)[C@H](CC1CCCCC1)NC(=O)c1ccno1)[C@@H](C)CC

Activity [1]: 2%
inhibition [2]: 12%
Structure (SMILES): CC[C@H](C)[C@H](NC(=O)[C@H](CC1CCCCC1)NC(=O)c1ccno1)C(=O)NCc1cccc2ccccc12

Activity [1]: 38%
inhibition [2]: 67%
Structure (SMILES): CC[C@H](C)[C@H](NC(=O)[C@H](CC1CCCCC1)NC(=O)c1ccno1)C(=O)NCc1ccccc1OC(C)C

Activity [1]: 6%
IC50 ([8]; read-out: IC50): 1000 nM
IC50 ([8]; read-out: pIC50 (converted)): 1260 nM
inhibition [2]: 53%
Structure (SMILES): CCC(C)Oc1ccccc1CNC(=O)[C@@H](NC(=O)[C@H](CC1CCCCC1)NC(=O)c1ccno1)[C@@H](C)CC (stereo partly specified)

Activity [1]: 32%
inhibition [2]: 98%
Structure (SMILES): CC[C@H](C)[C@H](NC(=O)[C@H](CC1CCCCC1)NC(=O)c1ccno1)C(=O)NCc1cccc(OC)c1

Activity [1]: 5%
inhibition [2]: 17%
Structure (SMILES): CC[C@H](C)[C@H](NC(=O)[C@H](CC1CCCCC1)NC(=O)c1ccno1)C(=O)NCc1cccc(-c2ccccc2)c1

Activity [1]: 83%
Structure (SMILES): CC[C@H](C)[C@H](NC(=O)[C@H](CC1CCCCC1)NC(=O)c1ccno1)C(=O)NCc1ccccn1

Activity [1]: 23%
inhibition [2]: 76%
Structure (SMILES): CC[C@H](C)[C@H](NC(=O)[C@H](CC1CCCCC1)NC(=O)c1ccno1)C(=O)NCc1ccccc1

Activity [1]: 20%
inhibition [2]: 27%
Structure (SMILES): CC[C@H](C)[C@H](NC(=O)[C@H](CC1CCCCC1)NC(=O)c1ccno1)C(=O)N(C)Cc1ccccc1OC

Activity [1]: 1%
inhibition [2]: 34%
Structure (SMILES): CCCOc1ccccc1CNC(=O)[C@@H](NC(=O)[C@H](CC1CCCCC1)NC(=O)c1ccno1)[C@@H](C)CC

Activity [1]: 33%
inhibition [2]: 84%
Structure (SMILES): CC[C@H](C)[C@H](NC(=O)[C@H](CC1CCCCC1)NC(=O)c1ccno1)C(=O)NCc1ccc2c(c1)OCO2

AUC(0-t) at 6 h [3]: 444 ng·h/mL
Activity [1]: 20%
Tmax [6]: 2.63 h
Cmax [7]: 510 nM
IC50 ([8]; read-out: IC50): 500 nM
IC50 ([9]; read-out: pIC50 (converted)): 2000 nM
IC50 [14]: 4500 nM
inhibition [2]: 100%
inhibition [10]: inactive
inhibition [11]: inactive
Structure (SMILES): CC[C@H](C)[C@H](NC(=O)[C@H](CC1CCCCC1)NC(=O)c1ccno1)C(=O)NCc1ccccc1OC
inhibition (Rattus norvegicus [4]): inactive
inhibition (Rattus norvegicus [5]): Active
inhibition (HTEC [12]): Active
inhibition (HTEC [13]): Active
